Test results published in a melting point compilation (Tetko et al.; mined from patent text by program, amines drawn as free bases though some values may be those of a salt).

With `CC(C)C(C(=O)O)n1sc2ccccc2c1=O` (configuration not stated) the melting point was 166 to 168 °C. `CC(C)C1(C)N=C(c2nc3scc([N+](=O)[O-])c3cc2C(=O)O)NC1=O` (configuration not stated) showed a melting point of 260 °C. Work on `O=C(O)c1cccc(Oc2ccc(O)cc2)c1` yielded a melting point of 163 to 166 °C. `O=Cc1ccc(O)c(CCl)c1` gave a melting point of 123 to 124 °C. In the case of `CCOC(=O)Cn1c(C(=O)NCc2nnc(CO)n2-c2sc(CC)cc2C(=O)c2ccccc2Cl)cc2ccccc21`, the melting point is reported as 92 to 96 °C. With `CCCCCCCCCCCCOc1ccc(C(=O)c2ccccc2)cc1` the melting point was 63 to 64 °C. With `O=C(Nc1ccc(Cl)cc1)Nc1ccc2[nH]c(C(F)(F)F)nc2c1` the melting point was 264 to 268 °C. `COC(=O)c1cc(NC(=O)c2ccc(Cl)cc2)c2cc(Cc3ccc(F)cc3)cnc2c1O` showed a melting point of 253 to 254 °C. `CC(O)CCCCCCCC(O)c1ccc(OCc2ccccc2)c(OCc2ccccc2)c1` (configuration not stated) gave a melting point of 66 °C. `COCCOc1ccc(CCCOc2nn(C)cc2CC(=O)O)c(Oc2ncc(C(F)(F)F)cc2Cl)c1` gave a melting point of 127 to 129 °C. `CCC1CCC(=O)C=C1c1ccc(OCC(=O)OC(C)(C)C(=O)O)c(Cl)c1Cl` (configuration not stated) gave a melting point of 167 to 168 °C. Molecule `CNC(=O)c1c(-c2ccccn2)c2ccccc2n(C)c1=O` has a melting point of 239 to 240 °C. `COc1cc(OC)c(C(=O)C=Cc2ccc(SC)cc2)c(OP(=O)(O)O)c1` showed a melting point of 63 to 66 °C. In the case of `Cc1c(OCc2ccccc2)ccc(-c2cc(O)c(SCCc3ccccc3)c(=O)o2)c1O`, the melting point is reported as 147 to 148 °C. Work on `O=[N+]([O-])c1ccc(C=COC=Cc2ccc([N+](=O)[O-])cc2)cc1` yielded a melting point of 59 to 61 °C. In the case of `COc1ccc(-c2cc(C(=O)C(C)CN3CCCC3)on2)cc1` (configuration not stated), the melting point is reported as 75 to 77 °C. With `Cn1nc(-c2nc(C(N)=O)c(N)nc2-c2ccccc2)ccc1=O` the melting point was > 250 °C. In the case of `CCCCCCCCCCCCC(C)N(c1ccccc1)P(=O)(O)O` (configuration not stated), the melting point is reported as 60 to 64 °C. Molecule `COC(=O)c1cc(OCc2ccccc2)c2nc(C)n(C)c2c1` has a melting point of 166 °C. With `CN1CCN(C2=Nc3cc(C(F)(F)F)ccc3Nc3nn(C)nc32)CC1` the melting point was 109 to 111 °C. Molecule `CC1CCCC(C)N1CCNC(=O)CN1CC(c2ccccc2)CC1=O` (configuration not stated) has a melting point of 115 to 116 °C. Work on `COc1ccc2c(C(C)C(=O)OCCNC(=O)c3cccnc3)cccc2c1` (single isomer, unassigned; (+)) yielded a melting point of 79 to 82 °C. Molecule `CCOC(=O)N1CCN(c2ccc(-n3cc[nH]c3=O)cc2)CC1` has a melting point of 196 °C. `CCCCCC(O)c1cccc(OCc2cccc(CC(=O)O)c2)c1` (configuration not stated) showed a melting point of 111 to 113 °C. Work on `Cc1ccccc1P1(=O)c2ccccc2CN1c1ccccc1` (configuration not stated) yielded a melting point of 181 to 183 °C. Molecule `CCCCCCCCCCC(=O)C(=O)N[C@@H](CCC(=O)O)C(=O)O` has a melting point of 97 to 98 °C. Work on `COc1cc(OC)c(C(C)=O)c(O)c1CCC(C)C` yielded a melting point of 100 °C. In the case of `O=Cc1ccc(O)c2oc3ccc([N+](=O)[O-])cc3c12`, the melting point is reported as > 270 °C. With `Cc1c(C)c2c(c(C)c1O)CC[C@](C)(C(=O)N[C@H]1CCOC1O)O2` (some centres not stated) the melting point was 67 to 70 °C. For `CCOC(=O)c1ccc(-c2cc(O)c(SCCc3ccccc3)c(=O)o2)cc1`, the melting point was 156 to 158 °C. `O=C(O)Cn1c(Cc2ccccc2)ccc(NS(=O)(=O)CCc2ccccc2)c1=O` gave a melting point of 165 to 167 °C. `CCCCS(=O)CCCNc1cc2oc(=O)[nH]c2cc1F` (configuration not stated) showed a melting point of 116 to 117 °C. In the case of `CCCCCCOc1ccc(C(=O)CSc2ccnc3ccccc23)c(OC)c1`, the melting point is reported as 88.5 to 89.5 °C. In the case of `O=C1NCCc2[nH]c3cc(F)ccc3c21`, the melting point is reported as 213 to 215 °C. With `COc1cc2oc(=O)c(CCO)c(C)c2cc1OC` the melting point was 184 to 187 °C. With `CC(C)c1cc(C(C)C)c(CC(=O)NS(=O)(=O)Oc2c(C(C)C)cc(CNC(=O)CN)cc2C(C)C)c(C(C)C)c1` the melting point was 193 to 195 °C. For `Cn1cc(-c2cccc(Cl)c2)c(=O)c(-c2ccc(Cl)c(Cl)c2)c1`, the melting point was 107 to 110 °C. Work on `CC(c1ccccc1)n1cncc1C#N` (single isomer, unassigned; (+)) yielded a melting point of 97 to 99 °C. For `O=C(CCC(=O)N1CCC(c2ccc(Cl)cc2)CC1)c1ccc2c(c1)CCN(C(=O)c1ccccc1)CC2`, the melting point was 158 to 160 °C. `COc1cc(CO)c2oc(-c3ccc(OC)c(F)c3)cc2c1` showed a melting point of 128 to 130 °C. In the case of `CCOc1ccc(-c2ccc(C3COC(c4c(F)cccc4F)=N3)cc2)cn1` (configuration not stated), the melting point is reported as 119 °C. For `N=C(N)c1ccc(N2CCN(c3ccc(OCC(=O)O)cc3)CC2)cc1`, the melting point was > 340 °C. In the case of `Cc1ccc2c3c(ccc2n1)OCC(CN1C2CCC1CC(O)(c1ccc4ccccc4c1)C2)O3` (configuration not stated), the melting point is reported as 218 °C. In the case of `COC(=O)c1coc(-c2ncn3c2CN(C)C(=O)c2ccccc2-3)n1`, the melting point is reported as 264 to 265 °C. For `CCCCCCCC(=O)Oc1c(OC)c(OC)c(OC(=O)CCCCCCC)c2cc(Cl)ccc12`, the melting point was 74 to 75 °C. `CCC1(O)C(C)=CC(=O)N1c1ccccc1` (configuration not stated) showed a melting point of 97 to 100 °C. In the case of `CCOC(=O)C(C)(C)Oc1ccc(-c2ccc(CCNC(=O)c3cc(OC)cc(OC)c3)cc2)cc1`, the melting point is reported as 74 °C. In the case of `O=C1CC2Cc3c(Cl)cccc3C2N1` (configuration not stated), the melting point is reported as 186 to 187 °C. Work on `CC#Cc1ccc(NC(=O)c2ccccc2NCc2ccc(OC)nc2)cc1C(F)(F)F` yielded a melting point of 123 to 124 °C. With `CC(C)N(CCN1C(=O)/C(=N/NC(N)=O)c2ccc(Cl)cc21)C(C)C` the melting point was 205 to 208 °C. `CC(O)c1ccc(NS(C)(=O)=O)c(Nc2ccc(F)cc2F)c1` (configuration not stated) gave a melting point of 192 to 193 °C. For `O=C(O)c1cc(=O)c2cc3c(=O)cc(C(=O)O)[nH]c3c(Cl)c2[nH]1`, the melting point was > 310 °C. Work on `N#Cc1nn(-c2c(Cl)cc(C(F)(F)F)cc2Cl)c(N)c1-c1ccc(F)cc1` yielded a melting point of 222 to 223 °C. For `Nc1c(O)cc(Cl)cc1C(=O)C(F)(F)F`, the melting point was 120 to 122 °C. `O=C(Nc1cccc(C(F)(F)F)c1)Nc1ccc2c(c1)OC(F)(F)O2` showed a melting point of 187 to 191 °C. With `S=C1Nc2ccccc2Cn2nnnc21` the melting point was 275 to 277 °C. Work on `Cc1cc(Br)c(C)cc1Cl` yielded a melting point of 60 to 64 °C. Work on `Cc1ccccc1NC(=O)CN1C(=O)c2ccccc2C1=O` yielded a melting point of 254 °C. Molecule `CC(C)Oc1ccc(C(=O)NCCN2CCC(Oc3ccc(Cl)c(Cl)c3)CC2)cc1` has a melting point of 113 to 115 °C. `COC(=O)c1ccc(OC2CCCCO2)cc1` (configuration not stated) gave a melting point of 58 to 62 °C. In the case of `COc1cc2c(cc1OC)N(C(N)=O)C(=O)C2`, the melting point is reported as 206 to 209 °C. With `CCOC(=O)c1ccc(OCC(O)COc2cccc(O)c2C(C)=O)cc1` (configuration not stated) the melting point was 104 to 106 °C. `CCOc1ccc(CCCc2ccncc2)cc1` showed a melting point of 79 to 81 °C. For `Cc1nc2c(OCc3c(Cl)ccc(N(C)C(=O)CN)c3Cl)cccn2c1Br`, the melting point was 175 to 178 °C. Molecule `CCCCOCC(O)CN1C(=O)NC(=O)C(CC)(c2ccccc2)C1=O` (configuration not stated) has a melting point of 92 °C. `O=C(Nc1ccc(F)c([N+](=O)[O-])c1)c1ccc(Cl)c(Cl)c1` showed a melting point of 202 to 204 °C. In the case of `C=CCOc1cc(-n2c(OC)nc(C(F)(F)F)cc2=O)c(F)cc1Br`, the melting point is reported as 107 to 110 °C. In the case of `O=C(CCCCCBr)Nc1ccc(O)cc1`, the melting point is reported as 124 to 125 °C. Work on `O=S1(=O)Cc2cc(Cl)ccc2Oc2ccccc21` yielded a melting point of 159 to 166 °C. `COc1ccc(C(O)(C(F)(F)F)C(F)(F)F)cc1C=O` gave a melting point of 160 to 161 °C. For `OCCc1nccn1CCCCc1ccc(OCc2ccccc2)cc1`, the melting point was 75 to 77 °C. With `CCCn1cc(C(=O)NCc2ccc(Cl)cc2)c(=O)c2cc(C#CCO)ccc21` the melting point was 183 to 184 °C.
